Consider 18 compounds from patent publication US8158641B2, “2-anilino-4-aminoalkyleneaminopyrimidines” (Boehringer Ingelheim International GmbH, priority 2006, dated 2012).

By IC50 is commonly meant the point on the concentration scale where inhibition reaches its midpoint.

The assay addresses T1, full-length human PKC-α enzyme (Homo sapiens, UniProt P17252).
T1 construct: performed using full-length human PKC-α enzyme (Upstate Biotechnology); purchased Upstate Biotechnology
Put plainly: Assessment of PKC-α Inhibitory Activity (MALDI-TOF kinase assay). The class given is biochemical. The following applies: full-length human PKC-α 0.12 μg/ml; ATP 45 μM; neurogranin 28-43 peptide 22 μM; 30 minute incubation at 24° C.; MALDI-TOF readout. The protocol: Measurement of PKC-α enzyme activity is performed using full-length human PKC-α enzyme (Upstate Biotechnology) at a final concentration of 0.12 μg/ml in a kinase assay buffer (0.09 mg/ml bovine serum albumin (BSA), 210 μM ethylenediaminetetraacetic acid (EDTA), 360 μM CaCl2, 1 mM Tris-HCl, pH=7.5, 0.5 mM MgCl2, 0.015 mg/ml phosphatidylserine and 0.015 mg/ml diacylglycerol). The reaction is initiated by addition of adenosine triphosphate (ATP; final concentration 45 μM) and a peptide substrate consisting of amino acids 28-43 (Ala-Ala-Lys-Ile-Gln-Ala-Ser-Phe-Arg-Gly-His-Met-Ala-Arg-Lys-Lys) of neurogranin (Promega; final concentration 22 μM). After a 30 minute incubation at 24° C. the reaction is terminated by adding 5 μL of the reaction mixture into 50 μL of MALDI matrix solution (5 mg/ml α-cyano-4-hydroxycinnamic acid in 50% Acetonitrile/H2O, 0.1% TFA, 5 mM ammonium phosphate). Two microliters of the stopped reaction mixture is transferred onto a MALDI-TOF mass spectrometer target plate.
All spectra are collected on an Applied Biosystems 4700 Proteomics Analyzer MALDI-TOF MS equipped with a Nd:YAG laser (355 nm, 3 ns pulse width, 200 Hz repetition rate) in negative ion reflector mode. The system is operated with 4700 Explorer software, version 3.0. Automated acquisition parameters are adjusted to capture and average only those individual spectra within defined success criteria. Specifically, signal intensities for the substrate peptide are set to a minimum threshold of 3000 counts and a maximum intensity of 65,000 counts. This ensured that neither null spectra nor saturated spectra are averaged into the final readout. Between 1000 and 1500 laser shots are averaged for each sample. Data are collected in triplicate from 3 successive days to capture the maximum variability related to preparation of enzyme reaction, transfer of samples to MALDI target plates, data collection, and data extraction.
The isotope cluster areas for each peptide substrate and product peaks are extracted into a Microsoft Excel worksheet from the 10×10 array of spectral data simultaneously using the automated analysis function provided within the 4700 Explore software. The isotope cluster area is defined by the software algorithm based on the molecular weight and the general elemental composition of the peptides. The percent conversion (% C) of substrate to product is calculated as the cluster area of the product (P) divided by the sum of the cluster areas of the substrate (S) and the product multiplied by 100 as represented by the following equation: […]
For dose-dependent inhibition studies, the inhibition is plotted as a % Maximal Activity (% MA). Equation one is a measure of the ratio of product to substrate then solving for the % C. However, to measure inhibition of the enzyme activity, one must measure the degree to which that activity (% C) is curtailed. Thus the dose-dependant inhibition data is plotted as % MA where the maximal activity is the % C measured in control reactions with no inhibitor as represented by the following equation: […]
In turn, `CN(C)CCCNc1ccnc(Nc2cccc(Cl)c2)n1` [No. 3, N^2-(3-chlorophenyl)-N^4-[3-(dimethylamino)propyl]pyrimidine-2,4-diamine] had an IC50 of 0.312 µM.
The value for `CN(C)CC(C)(C)CNc1ccnc(Nc2cccc(C(F)(F)F)c2)n1` [No. 75, N^4-[3-(dimethylamino)-2,2-dimethylpropyl]-N^2-[3-(trifluoromethyl)phenyl]pyrimidine-2,4-diamine] was 0.004 µM; that for `CN(C)CCCCNc1ccnc(Nc2cccc(Cl)c2)n1` [No. 81, N^2-(3-chlorophenyl)-N^4-[4-(dimethylamino)butyl]pyrimidine-2,4-diamine] was 0.0008 µM.
Turning to `CCN(CC)CCCNc1ccnc(Nc2cccc(Cl)c2)n1` [compound 6], it took 0.001 µM to reach half-maximal inhibition (IC50). The IC50 values of the last two compounds are within 1.5-fold of each other.
In the case of `CN(C)CCCNc1ccnc(Nc2ccc(Cl)c(Cl)c2)n1` [compound 15], 0.015 µM corresponded to half-maximal inhibition (IC50).
As to `Cc1ccc(Nc2nccc(NCCCN(C)C)n2)cc1Cl` [compound 21], inhibition was half-maximal at 0.003 µM (IC50).
For the compound `CN(C)CCCNc1ccnc(Nc2cccc(Cl)c2F)n1` [compound 25], the half-maximal inhibitory concentration (IC50) was 0.023 µM.
Compound `CN(C)CCCNc1ccnc(Nc2ccc(F)c(Cl)c2)n1` [compound 27] came in with an IC50 of 0.008 µM. Compared with the last compound, the IC50 is about 2.9-fold lower.
`CN(C)CCCNc1ccnc(Nc2ccc(F)c(F)c2)n1` [compound 33]: the concentration for half-maximal inhibition (IC50) was 0.065 µM. Against the preceding compound, the IC50 is about 8.1-fold higher.
In turn, `CN(C)CCCNc1ccnc(Nc2cccc(C(F)(F)F)c2)n1` [compound 39] gave an IC50 of 0.0005 µM.
On to `CN(C)CCCNc1ccnc(Nc2ccc(Cl)c(C(F)(F)F)c2)n1` [compound 45], for which 0.003 µM corresponded to half-maximal inhibition (IC50).
The value for `COc1cccc(Nc2nccc(NCCCN(C)C)n2)c1` [compound 51] was 0.014 µM.
`Cc1cccc(Nc2nccc(NCCCN(C)C)n2)c1` [compound 55] registered an IC50 of 0.04 µM.
`Cc1cccc(Nc2nccc(NCCCN(C)C)n2)c1` [compound 58] had an IC50 of 0.093 µM.
As for `CN(C)CCNc1ccnc(Nc2cccc(Cl)c2)n1` [compound 69], the concentration for half-maximal inhibition (IC50) is 0.083 µM. The IC50 values of the last two compounds are within 1.5-fold of each other.
`CN(C)CCCCNc1ccnc(Nc2cccc(Cl)c2)n1` [compound 81] yielded an IC50 of 0.012 µM.
For `CN(C)CCCNc1ccnc(Nc2cccc(-c3ccccc3)c2)n1` [compound 87], inhibition was half-maximal at 0.0004 µM (IC50).
With `Cc1nc(-c2cccc(Nc3nccc(NCCCN(C)C)n3)c2)cs1` [compound 105] the figure was 0.048 µM.
